Data from patent US9504251B2, “Pesticidal compositions and related methods” (Dow AgroSciences LLC, priority 2014, dated 2016).
Read-outs that look alike come from different tables or passages of the source.

How the values were obtained:
[1] = tested on: Green Peach Aphid (Myzus persicae) (GPA) (MYZUPE); experiment: Green peach aphid (GPA) foliar spray bioassay on cabbage seedlings; format: in vivo; conditions: 72 h, 200 ppm foliar spray on cabbage seedlings, graded after three days, read-out: GPA % Control (or Mortality) rating
Protocol: Bioassay for GPA was prepared as follows: Cabbage seedlings grown in 3-inch pots, with 2-3 small (3-5 cm) true leaves, were used as test substrate. The seedlings were infested with 20-50 GPA (adult and nymph stages) one day prior to chemical application. Four pots with individual seedlings were used for each treatment. The tested compounds (2 mg) were dissolved in 2 mL of acetone/methanol (1:1) solvent to form stock solutions of 1000 ppm tested compound. The stock solutions were diluted five times with an aqueous solution containing 0.025% TWEEN® 20 surfactant, which is polyoxyethylene (20) sorbitan monolaurate, to obtain the solution at 200 ppm tested compound. A hand-held aspirator-type sprayer was used for spraying the solution to both sides of cabbage leaves until runoff. The control plants (solvent check) were sprayed with the diluent only containing 20% by volume of acetone/methanol (1:1) solvent. Treated plants were held in a holding room for three days at approximately 25° C. and ambient relative humidity (RH) prior to grading. Evaluation was conducted by counting the number of live aphids per plant under a microscope. Percent control was measured by using Abbott's correction formula (W. S. Abbott, “A Method of Computing the Effectiveness of an Insecticide,” J. Econ. Entomol. 18 (1925), pp. 265-267) as follows. Corrected % Control=100*(X−Y)/X
X=No. of live aphids on solvent check plants and
Y=No. of live aphids on treated plants
(§1) The comparative compounds were tested for insecticidal activities against GPA and WF pests using the same test protocols described above for the disclosed compounds.

[2] = tested on: Sweetpotato Whitefly-crawler (Bemisia tabaci) (WF) (BEMITA); experiment: Sweetpotato whitefly-crawler (WF) foliar spray assay on cotton plants; format: in vivo; conditions: 216 h, 200 ppm foliar spray on cotton plants, graded after 9 days, read-out: WF % Control (or Mortality) rating
Protocol: Foliar spray assay for WF was prepared as follows: Cotton plants (Gossypium hirsutum) grown in 3-inch pots, with 1 small (4-5 cm) true leaf, were used as test substrate. The plants were infested with 200-400 whitefly eggs 4-5 days prior to chemical application. Four pots with individual plants were used for each treatment. Tested compounds (2 mg) were dissolved in 1 mL of acetone solvent, forming stock solutions of 2000 ppm tested compound.
The stock solutions were diluted ten times with 0.025% TWEEN® 20 surfactant in H2O (diluents) to obtain the solution at 200 ppm tested compound. A hand-held aspirator-type sprayer was used for spraying the solution to both sides of cotton leaves until runoff. The control plants (solvent check) were sprayed with the diluent only containing 10% by volume of acetone solvent. Treated plants were held in a holding room for 9 days at approximately 25° C. and ambient relative humidity (RH) prior to grading. Evaluation was conducted by counting the number of live 3-4 nymph stage per plant under a microscope. Percent control was measured by using Abbott's correction formula (W. S. Abbott, “A Method of Computing the Effectiveness of an Insecticide,” J. Econ. Entomol. 18 (1925), pp. 265-267) as follows. Corrected % Control=100*(X−Y)/X
X=No. of live nymphs on solvent check plants and
Y=No. of live nymphs on treated plants.
as §1

[3] = Abbott-corrected % control, disclosed compounds (TABLE 2)
[4] = same protocol, comparative compounds (TABLE 3)

| SMILES | mortality at 200 ppm [1, 3] | mortality at 200 ppm [2, 3] | mortality at 200 ppm [1, 4] | mortality at 200 ppm [2, 4] |
| --- | --- | --- | --- | --- |
| O=C1c2cn(-c3cccnc3)nc2CCN1CC=NOCc1ccccc1 (racemic) [Compound P27, 2-(4-oxo-2-(pyridin-3-yl)-2,4,6,7-tetrahydro-5H-pyrazolo[4,3-c]pyridin-5-yl)acetaldehyde O-benzyl oxime] | 80 to 100% | 80 to 100% |  |  |
| O=C1c2cn(-c3cccnc3)nc2CCN1CC(=NOCc1ccccc1)c1ccccc1 (racemic) [Compound P36, 5-(2-((benzyloxy)imino)-2-phenylethyl)-2-(pyridin-3-yl)-2,5,6,7-tetrahydro-4H-pyrazolo[4,3-c]pyridin-4-one] | 0 to 80% | 80 to 100% |  |  |
| CON=CCN1CCc2nn(-c3cccnc3)cc2C1=O (single isomer, unassigned) [Compound P26, 2-(4-oxo-2-(pyridin-3-yl)-2,4,6,7-tetrahydro-5H-pyrazolo[4,3-c]pyridin-5-yl)acetaldehyde O-methyl oxime] | 80 to 100% |  |  |  |
| CON=C(C)CN1CCc2nn(-c3cccnc3)cc2C1=O (single isomer, unassigned) [Compound P30, 5-(2-(methoxyimino)propyl)-2-(pyridin-3-yl)-2,5,6,7-tetrahydro-4H-pyrazolo[4,3-c]pyridin-4-one] | 80 to 100% | 80 to 100% |  |  |
| CC(CN1CCc2nn(-c3cccnc3)cc2C1=O)=NOCc1ccccc1 (single isomer, unassigned) [Compound P31, 5-(2-((benzyloxy)imino)propyl)-2-(pyridin-3-yl)-2,5,6,7-tetrahydro-4H-pyrazolo[4,3-c]pyridin-4-one] | 80 to 100% | 80 to 100% |  |  |
| CON=C(CN1CCc2nn(-c3cccnc3)cc2C1=O)c1ccccc1 (single isomer, unassigned) [Compound P32, 5-(2-(methoxyimino)-2-phenylethyl)-2-(pyridin-3-yl)-2,5,6,7-tetrahydro-4H-pyrazolo[4,3-c]pyridin-4-one] | 80 to 100% | 0 to 80% |  |  |
| CON=C(CN1CCc2nn(-c3cccnc3)cc2C1=O)c1cccc(C(F)(F)F)c1 (single isomer, unassigned) [Compound P34, 5-(2-(methoxyimino)-2-(3-(trifluoromethyl)phenyl)ethyl)-2-(pyridin-3-yl)-2,5,6,7-tetrahydro-4H-pyrazolo[4,3-c]pyridin-4-one] | 80 to 100% |  |  |  |
| CON=C(CN1CCc2nn(-c3cccnc3)cc2C1=O)c1ccc(C(F)(F)F)cc1 (single isomer, unassigned) [Compound P35, 5-(2-(methoxyimino)-2-(4-(trifluoromethyl)phenyl)ethyl)-2-(pyridin-3-yl)-2,5,6,7-tetrahydro-4H-pyrazolo[4,3-c]pyridin-4-one] | 80 to 100% |  |  |  |
| O=C1c2cn(-c3cccnc3)nc2CCN1CC(=NOCc1ccccc1)c1cccc(C(F)(F)F)c1 (single isomer, unassigned) [Compound P38, 5-(2-((benzyloxy)imino)-2-(3-(trifluoromethyl)phenyl)ethyl)-2-(pyridin-3-yl)-2,5,6,7-tetrahydro-4H-pyrazolo[4,3-c]pyridin-4-one] | 0 to 80% | 0 to 80% |  |  |
| O=C1c2cn(-c3cccnc3)nc2CCN1CC(=NOCc1ccccc1)c1ccc(C(F)(F)F)cc1 (single isomer, unassigned) [Compound P39, 5-(2-((benzyloxy)imino)-2-(4-(trifluoromethyl)phenyl)ethyl)-2-(pyridin-3-yl)-2,5,6,7-tetrahydro-4H-pyrazolo[4,3-c]pyridin-4-one] | 0 to 80% | 0 to 80% |  |  |
| O=C1c2cn(-c3ccccn3)nc2CCN1c1ccc(C(F)(F)F)cn1 [CE6, 2-(2-Pyridyl)-5-[5-(trifluoromethyl)-2-pyridyl]-6,7-dihydropyrazolo[4,3-c]pyridin-4-one, reference compound] |  |  | 0 to 80% | < 0% |
| CON(C)C(=O)CN1CCc2nn(-c3cccnc3)cc2C1=O [Compound CA3, N-methoxy-N-methyl-2-(4-oxo-2-(pyridin-3-yl)-2,4,6,7-tetrahydro-5H-pyrazolo[4,3-c]pyridin-5-yl)acetamide] | 80 to 100% | 80 to 100% |  |  |
| CC(=O)CN1CCc2nn(-c3cccnc3)cc2C1=O [Compound CA4, 5-(2-oxopropyl)-2-(pyridin-3-yl)-2,5,6,7-tetrahydro-4H-pyrazolo[4,3-c]pyridin-4-one] | 80 to 100% |  |  |  |
| O=C1NCCc2nn(-c3ccccn3)cc21 [Compound CE1, 2-(pyridin-2-yl)-6,7-dihydro-2H-pyrazolo[4,3-c]pyridin-4(5H)-one, reference compound] |  |  | < 0% | 0 to 80% |
| CSCN1CCc2nn(-c3ccncc3)cc2C1=O [Compound CE2, 5-(methylsulfanylmethyl)-2-(4-pyridyl)-6,7-dihydropyrazolo[4,3-c]pyridin-4-one, reference compound] |  |  | 0 to 80% | 0 to 80% |
| CSCN1CCc2nn(-c3ccccn3)cc2C1=O [Compound CE3, 5-(Methylsulfanylmethyl)-2-(2-pyridyl)-6,7-dihydropyrazolo[4,3-c]pyridin-4-one, reference compound] |  |  | < 0% | < 0% |
| O=C1c2cn(-c3ccccn3)nc2CCN1c1cccc(OC(F)(F)F)c1 [Compound CE4, 2-(2-Pyridyl)-5-[3-(trifluoromethoxy)phenyl]-6,7-dihydropyrazolo[4,3-c]pyridin-4-one, reference compound] |  |  | < 0% | < 0% |
| O=C1c2cn(-c3ccccn3)nc2CCN1c1cccc(C(F)(F)F)n1 [Compound CE5, reference compound] |  |  | < 0% | < 0% |
| O=C1c2cn(-c3ccccn3)nc2CCN1c1cc(C(F)(F)F)ccn1 [Compound CE7, 2-(2-Pyridyl)-5-[4-(trifluoromethyl)-2-pyridyl]-6,7-dihydropyrazolo[4,3-c]pyridin-4-one, reference compound] |  |  | 0 to 80% | < 0% |
| O=C1c2cn(-c3cccnc3)nc2CCN1CC1CC1 [Compound F1, 5-(cyclopropylmethyl)-2-(pyridin-3-yl)-6,7-dihydro-2H-pyrazolo[4,3-c]pyridin-4(5H)-one] | 80 to 100% | 80 to 100% |  |  |
| O=C1NCCc2nn(-c3cccnc3)cc21 [Compound F2, 2-(pyridin-3-yl)-6,7-dihydro-2H-pyrazolo[4,3-c]pyridin-4(5H)-one] | 80 to 100% | 0 to 80% |  |  |
| O=C1c2cn(-c3cccnc3)nc2CCN1Cc1ccc(F)cc1 [Compound F3, 5-(4-fluorobenzyl)-2-(pyridin-3-yl)-6,7-dihydro-2H-pyrazolo[4,3-c]pyridin-4(5H)-one] |  | 0 to 80% |  |  |
| O=C1c2cn(-c3cccnc3)nc2CCN1c1cccc(C(F)(F)F)c1 [Compound F4, 2-(3-Pyridyl)-5-[3-(trifluoromethyl)phenyl]-6,7-dihydropyrazolo[4,3-c]pyridin-4-one] | 80 to 100% | 0 to 80% |  |  |
| O=C1c2cn(-c3cccnc3)nc2CCN1c1ccnc(C(F)(F)F)c1 [Compound F5, 2-(3-Pyridyl)-5-[2-(trifluoromethyl)-4-pyridyl]-6,7-dihydropyrazolo[4,3-c]pyridin-4-one] | 80 to 100% | 0 to 80% |  |  |
| O=C(CN1CCc2nn(-c3cccnc3)cc2C1=O)c1cccc(C(F)(F)F)c1 [Compound P20, 5-(2-oxo-2-(3-(trifluoromethyl)phenyl)ethyl)-2-(pyridin-3-yl)-2,5,6,7-tetrahydro-4H-pyrazolo[4,3-c]pyridin-4-one] | 80 to 100% |  |  |  |
| O=C(CN1CCc2nn(-c3cccnc3)cc2C1=O)c1ccc(C(F)(F)F)cc1 [Compound P21, 5-(2-oxo-2-(4-(trifluoromethyl)phenyl)ethyl)-2-(pyridin-3-yl)-2,5,6,7-tetrahydro-4H-pyrazolo[4,3-c]pyridin-4-one] | 80 to 100% |  |  |  |
